Measured values reported in ChEMBL document CHEMBL4014331, “Design and Synthesis of Soluble and Cell-Permeable PI3Kδ Inhibitors for Long-Acting Inhaled Administration” (J Med Chem, 2017).
Values after ≈ are worked out from the molar mass of the structure shown.

Legend:
[1] = target: PI3-kinase p110-delta/p85-alpha (Homo sapiens, UniProt O00329); assay: Inhibition of recombinant human His6-tagged PI3K p110delta/p85alpha using DiC8-PIP2 as substrate preincubated for 15 mins followed by substrate addition measured after 60 mins by ADP-Glo assay; format: protein-complex assay
[2] = target: T1, Phosphatidylinositol 4,5-bisphosphate 3-kinase catalytic subunit delta isoform (Homo sapiens, UniProt O00329); assay: Inhibition of PI3Kdelta in human JeKo1 cells assessed as reduction in Akt phosphorylation at Ser473 residue preincubated for 60 mins followed by Anti-IgM stimulation for 10 mins by TR-FRET assay; format: cell-based
T1 sequence (O00329 whole entry): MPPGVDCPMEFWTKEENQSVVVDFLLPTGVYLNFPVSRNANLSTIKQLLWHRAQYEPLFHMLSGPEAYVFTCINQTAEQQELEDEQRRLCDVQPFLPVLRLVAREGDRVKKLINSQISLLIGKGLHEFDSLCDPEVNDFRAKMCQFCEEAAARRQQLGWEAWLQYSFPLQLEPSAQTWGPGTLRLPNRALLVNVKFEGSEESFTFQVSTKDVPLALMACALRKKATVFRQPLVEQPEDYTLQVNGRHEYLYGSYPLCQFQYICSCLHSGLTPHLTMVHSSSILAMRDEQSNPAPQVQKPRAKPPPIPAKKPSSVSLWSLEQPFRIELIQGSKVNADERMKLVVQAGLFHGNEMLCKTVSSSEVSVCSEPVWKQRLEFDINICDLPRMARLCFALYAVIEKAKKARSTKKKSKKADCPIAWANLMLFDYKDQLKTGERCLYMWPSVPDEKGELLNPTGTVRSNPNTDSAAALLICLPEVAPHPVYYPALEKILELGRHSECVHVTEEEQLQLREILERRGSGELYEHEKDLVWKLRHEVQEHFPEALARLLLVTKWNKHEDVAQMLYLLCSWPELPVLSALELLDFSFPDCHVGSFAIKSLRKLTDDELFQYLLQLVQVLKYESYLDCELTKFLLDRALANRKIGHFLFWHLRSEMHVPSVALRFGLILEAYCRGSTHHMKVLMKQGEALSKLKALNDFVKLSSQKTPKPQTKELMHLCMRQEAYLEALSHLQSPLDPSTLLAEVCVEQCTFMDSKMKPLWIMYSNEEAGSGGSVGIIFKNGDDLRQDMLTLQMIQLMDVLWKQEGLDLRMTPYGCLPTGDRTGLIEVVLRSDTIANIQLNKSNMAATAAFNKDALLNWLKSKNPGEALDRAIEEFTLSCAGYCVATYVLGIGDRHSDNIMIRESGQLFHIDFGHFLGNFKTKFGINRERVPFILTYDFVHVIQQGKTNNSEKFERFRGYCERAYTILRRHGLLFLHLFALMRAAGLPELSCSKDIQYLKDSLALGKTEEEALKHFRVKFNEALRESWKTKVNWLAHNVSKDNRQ

[3] = target: Phosphatidylinositol 4,5-bisphosphate 3-kinase catalytic subunit gamma isoform (Homo sapiens, UniProt P48736); assay: Inhibition of recombinant human His6-tagged PI3Kgamma (144 to 1102 residues) using DiC8-PIP2 as substrate preincubated for 15 mins followed by substrate addition measured after 60 mins by ADP-Glo assay
PI3K p110 beta/p85 alpha = PI3K p110 beta/p85 alpha (Homo sapiens, UniProt P42338); assay: Inhibition of recombinant human His6-tagged PI3K p110beta/p85alpha using DiC8-PIP2 as substrate preincubated for 15 mins followed by substrate addition measured after 60 mins by ADP-Glo assay; format: protein-complex assay
[4] = Solubility of the compound; format: physicochemical
[5] = Metabolic stability in it dosed rat lungs assessed as compound remaining at 4 hrs post dose by LC-MS/MS analysis; format: ADME, organism-based; conditions: lung, inhaled or intranasal, read-out: Stability
[6] = Lipophilicity, log D of the compound; format: physicochemical; conditions: octanol/water
[7] = Terminal half life in it dosed rat lung by LC-MS/MS analysis; format: ADME, organism-based; conditions: inhaled or intranasal, read-out: beta t1/2 (converted)
[8] = Metabolic stability in it dosed rat lungs assessed as compound remaining at 24 hrs post dose by LC-MS/MS analysis; format: ADME, organism-based; conditions: lung, inhaled or intranasal, read-out: Stability
[9] = target: PI3-kinase p110-alpha/p85-alpha (Homo sapiens, UniProt P42336); assay: Inhibition of recombinant human His6-tagged PI3K p110alpha/p85alpha using DiC8-PIP2 as substrate preincubated for 15 mins followed by substrate addition measured after 60 mins by ADP-Glo assay; format: protein-complex assay
[10] = Dissociation constant, acidic pKa of compound; format: physicochemical
[11] = Dissociation constant, basic pKa of compound; format: physicochemical
[12] = Metabolic stability in it dosed rat lungs assessed as compound remaining at 3 mins post dose by LC-MS/MS analysis; format: ADME, organism-based; conditions: lung, inhaled or intranasal, read-out: Stability

Chain of Phosphatidylinositol 4,5-bisphosphate 3-kinase catalytic subunit gamma isoform (P48736 whole entry, the tested form may be a part, canonical isoform): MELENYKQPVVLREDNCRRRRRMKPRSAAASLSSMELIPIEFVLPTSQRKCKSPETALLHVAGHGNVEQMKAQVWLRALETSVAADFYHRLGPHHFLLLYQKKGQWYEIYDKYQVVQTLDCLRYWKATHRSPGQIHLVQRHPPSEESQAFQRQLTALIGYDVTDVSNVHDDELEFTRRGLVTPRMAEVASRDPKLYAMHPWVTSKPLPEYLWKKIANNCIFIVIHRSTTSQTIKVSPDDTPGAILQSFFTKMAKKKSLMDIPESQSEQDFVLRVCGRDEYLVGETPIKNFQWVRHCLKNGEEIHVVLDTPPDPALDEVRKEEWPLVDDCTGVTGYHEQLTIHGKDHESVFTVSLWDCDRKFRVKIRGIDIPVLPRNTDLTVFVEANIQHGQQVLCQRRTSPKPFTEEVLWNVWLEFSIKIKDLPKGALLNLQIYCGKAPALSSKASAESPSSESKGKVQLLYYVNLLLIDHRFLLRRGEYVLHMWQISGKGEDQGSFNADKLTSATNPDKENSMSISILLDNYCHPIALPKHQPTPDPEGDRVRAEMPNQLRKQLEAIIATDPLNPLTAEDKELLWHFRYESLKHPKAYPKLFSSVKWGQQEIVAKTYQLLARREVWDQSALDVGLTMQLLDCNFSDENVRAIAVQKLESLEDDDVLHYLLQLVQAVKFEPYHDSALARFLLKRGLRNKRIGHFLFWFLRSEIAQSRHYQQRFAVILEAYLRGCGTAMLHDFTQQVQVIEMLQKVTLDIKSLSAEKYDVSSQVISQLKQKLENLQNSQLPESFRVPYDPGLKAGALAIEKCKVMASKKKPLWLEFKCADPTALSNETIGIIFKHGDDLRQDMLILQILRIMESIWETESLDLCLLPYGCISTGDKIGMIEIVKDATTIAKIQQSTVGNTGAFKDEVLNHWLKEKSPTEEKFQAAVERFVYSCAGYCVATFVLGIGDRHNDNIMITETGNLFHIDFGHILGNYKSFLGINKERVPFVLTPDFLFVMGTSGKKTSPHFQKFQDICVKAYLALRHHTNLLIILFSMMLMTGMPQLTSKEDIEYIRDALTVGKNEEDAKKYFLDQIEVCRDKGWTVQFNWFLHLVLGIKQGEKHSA
Chain of PI3K p110 beta/p85 alpha (P27986 whole entry): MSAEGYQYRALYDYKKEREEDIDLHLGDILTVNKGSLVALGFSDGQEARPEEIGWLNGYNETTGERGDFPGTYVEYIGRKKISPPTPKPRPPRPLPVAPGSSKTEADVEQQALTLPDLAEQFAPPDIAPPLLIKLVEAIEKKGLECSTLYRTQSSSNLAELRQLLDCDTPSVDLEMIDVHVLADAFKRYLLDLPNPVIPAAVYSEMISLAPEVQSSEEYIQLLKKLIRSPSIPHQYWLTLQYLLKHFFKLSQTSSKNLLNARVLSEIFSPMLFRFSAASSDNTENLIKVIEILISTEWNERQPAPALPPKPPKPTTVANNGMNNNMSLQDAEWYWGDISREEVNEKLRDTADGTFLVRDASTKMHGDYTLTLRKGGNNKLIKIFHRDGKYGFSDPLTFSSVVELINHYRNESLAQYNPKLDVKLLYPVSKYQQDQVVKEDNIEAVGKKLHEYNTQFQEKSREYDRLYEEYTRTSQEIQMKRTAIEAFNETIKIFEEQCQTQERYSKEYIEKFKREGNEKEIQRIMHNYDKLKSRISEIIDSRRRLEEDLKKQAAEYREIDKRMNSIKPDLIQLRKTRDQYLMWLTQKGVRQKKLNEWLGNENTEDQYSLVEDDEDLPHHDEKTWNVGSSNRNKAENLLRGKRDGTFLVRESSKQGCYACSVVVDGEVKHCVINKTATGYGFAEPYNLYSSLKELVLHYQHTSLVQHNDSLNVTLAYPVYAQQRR
Chain of PI3K p110 beta/p85 alpha (P42338 whole entry): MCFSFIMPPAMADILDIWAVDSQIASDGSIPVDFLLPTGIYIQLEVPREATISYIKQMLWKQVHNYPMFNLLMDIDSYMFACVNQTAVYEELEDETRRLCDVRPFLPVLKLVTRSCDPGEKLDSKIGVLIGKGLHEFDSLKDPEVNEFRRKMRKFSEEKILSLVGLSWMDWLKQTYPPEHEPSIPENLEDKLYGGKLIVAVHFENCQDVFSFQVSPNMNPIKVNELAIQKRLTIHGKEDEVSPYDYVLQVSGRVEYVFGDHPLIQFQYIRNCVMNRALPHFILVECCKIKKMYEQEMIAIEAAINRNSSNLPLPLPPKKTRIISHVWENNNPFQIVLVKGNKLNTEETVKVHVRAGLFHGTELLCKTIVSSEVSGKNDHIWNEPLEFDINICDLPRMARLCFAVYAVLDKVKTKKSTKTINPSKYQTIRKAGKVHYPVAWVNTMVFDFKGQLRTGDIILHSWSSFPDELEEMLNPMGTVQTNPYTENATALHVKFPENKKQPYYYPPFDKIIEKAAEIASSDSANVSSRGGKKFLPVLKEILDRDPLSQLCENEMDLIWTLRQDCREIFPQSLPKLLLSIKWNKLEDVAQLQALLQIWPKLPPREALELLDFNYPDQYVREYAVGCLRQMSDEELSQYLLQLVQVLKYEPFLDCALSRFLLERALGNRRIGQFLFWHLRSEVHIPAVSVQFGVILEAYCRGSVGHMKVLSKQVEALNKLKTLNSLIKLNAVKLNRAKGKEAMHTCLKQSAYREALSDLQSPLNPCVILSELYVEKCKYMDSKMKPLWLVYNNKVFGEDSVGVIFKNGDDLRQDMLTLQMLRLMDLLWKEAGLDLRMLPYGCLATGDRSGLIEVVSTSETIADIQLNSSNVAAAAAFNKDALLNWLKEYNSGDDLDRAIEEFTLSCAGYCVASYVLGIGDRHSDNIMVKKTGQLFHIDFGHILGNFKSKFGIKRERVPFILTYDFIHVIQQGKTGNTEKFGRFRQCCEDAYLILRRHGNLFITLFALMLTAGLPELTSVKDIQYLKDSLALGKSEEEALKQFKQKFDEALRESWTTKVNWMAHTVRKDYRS
Chain of PI3-kinase p110-alpha/p85-alpha (P27986 whole entry): as the sequence (P27986 whole entry) above
Chain of PI3-kinase p110-alpha/p85-alpha (P42336 whole entry): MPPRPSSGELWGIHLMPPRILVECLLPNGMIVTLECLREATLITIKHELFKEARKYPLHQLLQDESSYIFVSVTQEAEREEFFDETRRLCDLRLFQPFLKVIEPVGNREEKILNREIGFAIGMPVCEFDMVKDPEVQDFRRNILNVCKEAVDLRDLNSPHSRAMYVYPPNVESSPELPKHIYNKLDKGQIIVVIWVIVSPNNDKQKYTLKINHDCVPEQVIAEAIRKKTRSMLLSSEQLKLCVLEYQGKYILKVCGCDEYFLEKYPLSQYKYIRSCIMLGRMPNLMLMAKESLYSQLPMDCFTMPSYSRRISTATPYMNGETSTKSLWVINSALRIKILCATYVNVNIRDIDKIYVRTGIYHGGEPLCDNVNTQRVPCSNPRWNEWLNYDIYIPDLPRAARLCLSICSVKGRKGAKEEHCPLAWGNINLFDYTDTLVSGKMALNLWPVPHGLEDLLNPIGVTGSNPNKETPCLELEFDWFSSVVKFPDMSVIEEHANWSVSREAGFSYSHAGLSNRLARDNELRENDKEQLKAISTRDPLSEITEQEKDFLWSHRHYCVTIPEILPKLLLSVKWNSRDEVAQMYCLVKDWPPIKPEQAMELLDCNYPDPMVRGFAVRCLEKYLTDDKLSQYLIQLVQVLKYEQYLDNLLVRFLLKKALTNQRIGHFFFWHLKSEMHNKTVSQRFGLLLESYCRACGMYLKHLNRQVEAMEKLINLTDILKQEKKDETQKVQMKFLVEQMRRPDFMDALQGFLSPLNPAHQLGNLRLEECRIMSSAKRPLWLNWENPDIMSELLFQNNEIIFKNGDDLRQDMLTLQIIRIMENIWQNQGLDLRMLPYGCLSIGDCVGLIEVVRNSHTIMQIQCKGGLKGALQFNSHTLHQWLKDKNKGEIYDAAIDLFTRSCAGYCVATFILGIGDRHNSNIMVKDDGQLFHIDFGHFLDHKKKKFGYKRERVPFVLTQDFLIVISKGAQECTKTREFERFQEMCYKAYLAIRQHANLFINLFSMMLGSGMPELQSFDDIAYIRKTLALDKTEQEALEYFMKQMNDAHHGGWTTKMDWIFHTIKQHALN
Chain of PI3-kinase p110-delta/p85-alpha (P27986 whole entry, one chain of several, canonical isoform): as the sequence (P27986 whole entry) above

Row | IC50 [1] [nM] | IC50 [2] [nM] | IC50 [3] [nM] | IC50 (PI3K p110 beta/p85 alpha) [nM] | solubility [4] [µM] | remaining at 4 h [5] [%] | logD [6] | half-life [7] [h] | remaining at 24 h [8] [%] | IC50 [9] [nM] | pKa [10] | pKa [11] | remaining at 0.05 h [12] [%] | Structure (SMILES)
1 | 0.794 | 20 | 631 | 10 | > 1000 | 2.5 | -0.2 | 4.9 | 0 | 1260 |  |  |  | CNCc1cccc(-c2c([C@H](C)Nc3ncnc(N)c3C#N)cc3scc(C)n3c2=O)c1
2 | 1.58 | 6.31 | 316 | 200 |  |  | 0.7 |  |  | 7940 |  |  |  | Cc1csc2cc([C@H](C)Nc3ncnc(N)c3C#N)c(-c3cccc(OCCN(C)C)c3)c(=O)n12
3 | 0.631 | 12.6 | ≥ 200 | 20 |  |  | 0.6 | 4.2 | 0.1 | ≥ 631 | 9.6 | 4.7 |  | Cc1csc2cc([C@H](C)Nc3ncnc(N)c3C#N)c(-c3cccc(CNCCN4CCOCC4)c3)c(=O)n12
4 | 1.26 | 6.31 | ≥ 200 | 79.4 |  |  | 1.5 | 7.6 | 3.9 | ≥ 631 | 8.9 | 6.3 |  | Cc1csc2cc([C@H](C)Nc3ncnc(N)c3C#N)c(-c3cccc(CN(C)CCCCN4C[C@@H](C)O[C@@H](C)C4)c3)c(=O)n12
5 | 0.631 | 1.58 | 251 | 398 |  |  | 1.1 |  |  | 1000 |  |  |  | Cc1csc2cc([C@H](C)Nc3ncnc(N)c3C#N)c(-c3cccc(CC4CCN(C(C)C)CC4)c3)c(=O)n12
6 | 0.794 | 1.26 | ≥ 200 | 251 |  |  | 1.4 |  | 0 | ≥ 631 | 8 | 4 |  | CCN(CCN1CCOCC1)Cc1cccc(-c2c([C@H](C)Nc3ncnc(N)c3C#N)cc3scc(C)n3c2=O)c1
7 | 0.501 | 2 | ≥ 200 | 15.8 |  |  | 2.2 | 17.6 | 7.4 | ≥ 631 | 9.1 | 7 |  | Cc1csc2cc([C@H](C)Nc3ncnc(N)c3C#N)c(-c3cccc(CN(C)CCCCN(C)Cc4ccccc4)c3)c(=O)n12
8 | 0.794 | 2 | ≥ 200 | 63.1 |  |  | 2 | 10.9 | 5.2 | ≥ 631 | 9 | 7 |  | Cc1csc2cc([C@H](C)Nc3ncnc(N)c3C#N)c(-c3cccc(CN4CCC(CN(C)Cc5ccccn5)CC4)c3)c(=O)n12
9 | 0.398 | 1.26 | 316 | 7.94 | 699 (≈ 425 µg/mL) | 4.8 | 2.3 | 3.5 | 0 | 501 |  |  |  | Cc1csc2cc([C@H](C)Nc3ncnc(N)c3C#N)c(-c3cccc(CNCCCCOCCc4ccccc4)c3)c(=O)n12
10 | 0.501 | 2.51 | 501 | 39.8 | 954 (≈ 450 µg/mL) | 0.5 | 0.5 | 1.1 | 0 | 1580 |  |  |  | Cc1csc2cc([C@H](C)Nc3ncnc(N)c3C#N)c(-c3cccc(CN4CCC4)c3)c(=O)n12
11 | 1.26 | 5.01 | ≥ 200 | 126 |  |  | 1.5 | 5.9 | 0.8 | ≥ 631 | 8.5 | 5.7 |  | Cc1csc2cc([C@H](C)Nc3ncnc(N)c3C#N)c(-c3cccc(CN(C)CCCN4C[C@@H](C)O[C@@H](C)C4)c3)c(=O)n12
12 | 0.631 | 39.8 | 200 | 7.94 | > 1000 | 2 | -0.3 | 1.6 | 0 | 1260 |  |  |  | Cc1csc2cc([C@H](C)Nc3ncnc(N)c3C#N)c(-c3cccc(CN)c3)c(=O)n12
13 | 0.631 | 3.16 | ≥ 200 | 12.6 |  |  | 3.2 | 13 | 3.3 | ≥ 631 | 8.8 | 7.5 |  | Cc1csc2cc([C@H](C)Nc3ncnc(N)c3C#N)c(-c3cccc(CN(C)CCCN(C)Cc4ccc(Cl)cc4)c3)c(=O)n12
14 | 0.794 | 2.51 | > 1000 | 50.1 |  |  | 0.5 |  |  | 1260 |  |  |  | Cc1csc2cc([C@H](C)Nc3ncnc(N)c3C#N)c(-c3cccc(CCN(C)C)c3)c(=O)n12
15 | 0.398 | 0.631 to 0.794 | 12.6 | 50.1 | 77 (≈ 31 µg/mL) | 0 | 2.7 | < 0.1 | 0 | 631 |  |  | 2 | Cc1csc2cc([C@H](C)Nc3ncnc(N)c3C#N)c(-c3ccccc3)c(=O)n12
16 | 0.501 | 0.631 to 1.58 | > 794 | 100 | 12 (≈ 6.02 µg/mL) | 0 | 2.3 |  | 0 | 2000 |  |  | 6.5 | Cc1csc2cc([C@H](C)Nc3ncnc(N)c3C#N)c(-c3cccc(CN(C)CC(C)C)c3)c(=O)n12
17 | 0.631 | 2.51 | 398 | 20 | > 1000 | 0.8 | 0.7 | 1.3 | 0 | 1260 |  |  |  | COCCNCc1cccc(-c2c([C@H](C)Nc3ncnc(N)c3C#N)cc3scc(C)n3c2=O)c1
18 | 0.794 | 1.58 | 631 | 63.1 | 956 (≈ 439 µg/mL) | 0.2 | 0.8 | 2.3 | 0 | 3160 |  |  |  | Cc1csc2cc([C@H](C)Nc3ncnc(N)c3C#N)c(-c3cccc(CN(C)C)c3)c(=O)n12
19 | 0.631 | 2.51 | ≥ 200 | 50.1 |  |  | 2.1 | 12 | 3.3 | ≥ 631 | 9.8 | 8 |  | Cc1csc2cc([C@H](C)Nc3ncnc(N)c3C#N)c(-c3cccc(CN4CCC(CN(C)CC(C)C)CC4)c3)c(=O)n12
